# Like-named read-outs stand apart in the source and are kept apart here.
# How the values were obtained:
# human ALK2 = human ALK2 (Homo sapiens (Human), UniProt Q04771); assay: ALK2 enzyme inhibitory effect (33P-ATP kinase assay, Reaction Biology); type: biochemical; conditions: ALK2, 10 μM ATP, 20 μM casein
# From the text: (§1) ALK Enzyme Inhibitory Effect
# (§2) Evaluation conditions were described in the following web pages. http://www.reactionbiology.corrilwebapps/site/Kinase_Assay_Protocol.aspx http://www.reactionbiology.corrilwebapps/site/KinaseDetail.aspx?page=Kinases&id=1
# [1] = tested on: BMP signal in MDA-231-D-BREFluc/Rluc cells; assay: BMP signal inhibitory effect (AlphaScreen SureFire SMAD1 p-Ser463/465, BMP-6 stimulation); type: cell-based
# Outline: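 Read-out was phospho-SMAD1 (Ser463/465) by AlphaScreen SureFire after 30 min BMP-6 stimulation at 37° C. Before stimulation, MDA-231-D-BREFluc/Rluc cells were incubated with test compound at 37° C for 2 h.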
# human ALK3 = human ALK3 (Homo sapiens (Human), UniProt P36894); assay: ALK3 enzyme inhibitory effect (33P-ATP kinase assay, Reaction Biology); type: biochemical; conditions: for inhibition at 0.3 µM: read-out: Inhibition rate at 300 nM
# human ALK3, sequence (P36894 24-532): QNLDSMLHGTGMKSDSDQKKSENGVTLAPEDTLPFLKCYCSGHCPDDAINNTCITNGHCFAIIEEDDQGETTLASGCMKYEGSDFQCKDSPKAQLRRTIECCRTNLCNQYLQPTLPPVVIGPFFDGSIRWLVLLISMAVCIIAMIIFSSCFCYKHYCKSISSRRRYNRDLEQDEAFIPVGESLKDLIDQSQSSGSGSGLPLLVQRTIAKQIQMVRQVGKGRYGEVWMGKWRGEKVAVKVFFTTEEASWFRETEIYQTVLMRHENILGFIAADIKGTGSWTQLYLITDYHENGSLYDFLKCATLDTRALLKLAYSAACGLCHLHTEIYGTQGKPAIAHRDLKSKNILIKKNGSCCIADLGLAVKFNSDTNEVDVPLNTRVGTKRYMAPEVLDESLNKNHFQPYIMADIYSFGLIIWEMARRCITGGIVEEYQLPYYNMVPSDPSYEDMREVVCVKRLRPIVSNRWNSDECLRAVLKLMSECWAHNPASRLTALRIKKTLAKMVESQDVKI
# From the text: as §1, §2
# human ALK6 = human ALK6 (Homo sapiens (Human), UniProt O00238); assay: ALK6 enzyme inhibitory effect (33P-ATP kinase assay, Reaction Biology); type: biochemical; conditions: for inhibition at 0.37 µM: ALK6, test compound 370 nM (asterisk footnote), read-out: inhibition rate at 370 nM; for inhibition at 0.3 µM: read-out: Inhibition rate at 300 nM
# human ALK6, sequence (O00238 14-502): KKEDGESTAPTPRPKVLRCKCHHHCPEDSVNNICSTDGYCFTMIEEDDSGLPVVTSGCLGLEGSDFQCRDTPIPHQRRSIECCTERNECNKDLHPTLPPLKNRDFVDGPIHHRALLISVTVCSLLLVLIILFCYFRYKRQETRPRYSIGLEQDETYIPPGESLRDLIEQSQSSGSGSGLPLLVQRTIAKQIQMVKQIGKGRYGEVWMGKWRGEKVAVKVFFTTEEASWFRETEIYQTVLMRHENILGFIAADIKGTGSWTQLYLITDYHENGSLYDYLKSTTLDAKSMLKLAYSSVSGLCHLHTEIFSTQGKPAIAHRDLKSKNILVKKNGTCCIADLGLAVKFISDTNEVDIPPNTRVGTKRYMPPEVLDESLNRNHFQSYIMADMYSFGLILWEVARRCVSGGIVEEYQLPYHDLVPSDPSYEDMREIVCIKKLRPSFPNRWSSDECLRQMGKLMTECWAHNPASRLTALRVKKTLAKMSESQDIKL
# From the text: as §1, §2
# [2] = BMP-6 stimulated MDA-231-D-BREFluc/Rluc cells, phospho-SMAD1 AlphaScreen, read-out: IC50
# human ALK2, sequence (Q04771 21-509): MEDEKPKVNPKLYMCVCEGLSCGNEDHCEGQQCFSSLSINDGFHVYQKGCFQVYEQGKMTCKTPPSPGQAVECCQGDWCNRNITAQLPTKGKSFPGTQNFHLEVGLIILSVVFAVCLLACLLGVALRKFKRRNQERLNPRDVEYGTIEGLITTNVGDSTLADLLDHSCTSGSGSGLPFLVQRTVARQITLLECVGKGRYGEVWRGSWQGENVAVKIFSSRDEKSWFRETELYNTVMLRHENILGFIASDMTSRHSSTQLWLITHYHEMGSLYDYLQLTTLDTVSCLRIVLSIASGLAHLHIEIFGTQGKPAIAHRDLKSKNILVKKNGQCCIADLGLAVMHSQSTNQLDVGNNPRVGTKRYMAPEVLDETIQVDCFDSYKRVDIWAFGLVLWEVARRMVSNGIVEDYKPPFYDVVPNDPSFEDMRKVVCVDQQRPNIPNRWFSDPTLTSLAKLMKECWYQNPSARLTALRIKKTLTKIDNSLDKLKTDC
SMILES,IC50 (human ALK2),"IC50 [1, 2]",also measured
"c1cncc(-c2n[nH]cc2-c2ccnc(Nc3ccc(OCCN4CCOCC4)cc3)n2)c1 [Example 25, N-(4-(2-morpholinoethoxy)phenyl)-4-(3-(pyridin-3-yl)-1H-pyrazol-4-yl)pyrimidin-2-amine]",,0.0485 µM,inhibition at 0.37 µM (human ALK6): 47.7%
"CCn1cc(-c2ccc(Nc3nccc(-c4cn(CC)nc4-c4cccnc4)n3)cc2)cn1 [Example 27, N-(4-(1-ethyl-1H-pyrazol-4-yl)phenyl)-4-(1-ethyl-3-(pyridin-3-yl)-1H-pyrazol-4-yl)pyrimidin-2-amine]",0.0177 µM,0.0585 µM,
"CCn1cc(-c2ccnc(Nc3ccc(-c4cnn(CC(F)F)c4)cc3)n2)c(-c2cccnc2)n1 [Example 29, N-(4-(1-(2,2-Difluoroethyl)-1H-pyrazol-4-yl)phenyl)-4-(1-ethyl-3-(pyridin-3-yl)-1H-pyrazol-4-yl)pyrimidin-2-amine]",,0.0294 µM,"inhibition at 0.3 µM (human ALK6; ALK6, test compound 300 nM): 91.3%; inhibition at 0.3 µM (human ALK3; ALK3, test compound 300 nM): 66.1%"
"CCn1cc(-c2ccnc(Nc3cccc(CN4CCOCC4)c3)n2)c(-c2cccnc2)n1 [Example 41, 4-(1-ethyl-3-(pyridin-3-yl)-1H-pyrazol-4-yl)-N-(3-(morpholinomethyl)phenyl)pyrimidin-2-amine]",0.068 µM,0.0119 µM,"inhibition at 0.3 µM (human ALK6; ALK6, test compound 300 nM): 78%"
CCn1cc(-c2ccnc(Nc3ccc(S(=O)(=O)N(C)C4CCN(C(C)C)CC4)cc3)n2)c(-c2cccnc2)n1 [Example 124],0.0615 µM,0.016 µM,"inhibition at 0.3 µM (human ALK6; ALK6, test compound 300 nM): 87%"
"O=C(c1ccc(Nc2nccc(-c3cn(Cc4ccccc4)nc3-c3cccnc3)n2)cc1)N1CCNCC1 [Example 138, (4-((4-(1-Benzyl-3-(pyridin-3-yl)-1H-pyrazol-4-yl)pyrimidin-2-yl)amino)phenyl) (piperazin-1-yl)methanone]",,0.0224 µM,"inhibition at 0.3 µM (human ALK6; ALK6, test compound 300 nM): 83.8%"
"Fc1ccc(Cn2cc(-c3ccnc(Nc4ccc(N5CCNCC5)cc4)n3)c(-c3cccnc3)n2)cc1 [Example 139, 4-(1-(4-Fluorobenzyl)-3-(pyridin-3-yl)-1H-pyrazol-4-yl)-N-(4-(piperazin-1-yl)phenyl)pyrimidin-2-amine]",,0.0162 µM,"inhibition at 0.3 µM (human ALK6; ALK6, test compound 300 nM): 90.6%; inhibition at 0.3 µM (human ALK3; ALK3, test compound 300 nM): 54.3%"
"CCn1cc(-c2ccnc(Nc3ccc(N4CC5CCC(C4)N5)cc3)n2)c(-c2cccnc2)n1 [Example 143, N-(4-(3,8-Diazabicyclo[3.2.1]octan-3-yl)phenyl)-4-(1-ethyl-3-(pyridin-3-yl)-1H-pyrazol-4-yl)pyrimidin-2-amine]",,,IC50 [1]: 0.0092 µM; inhibition at 0.3 µM (human ALK6): 91%; inhibition at 0.3 µM (human ALK3): 57%
"CCn1cc(-c2ccnc(Nc3ccc(N4CC5CCC(C4)N5)nc3)n2)c(-c2cccnc2)n1 [Example 144, N-(6-(3,8-Diazabicyclo[3.2.1]octan-3-yl)pyridin-3-yl)-4-(1-ethyl-3-(pyridin-3-yl)-1H-pyrazol-4-yl)pyrimidin-2-amine]",,,IC50 [1]: 0.0167 µM; inhibition at 0.3 µM (human ALK6): 86%; inhibition at 0.3 µM (human ALK3): 46%
"CCn1cc(-c2ccnc(Nc3ccc(N4CCNCC4)cc3)n2)c(-c2cncc(F)c2)n1 [Example 148, 4-(1-Ethyl-3-(5-fluoropyridin-3-yl)-1H-pyrazol-4-yl)-N-(4-(piperazin-1-yl)phenyl)pyrimidin-2-amine]",0.051 µM,0.0148 µM,"inhibition at 0.3 µM (human ALK6; ALK6, test compound 300 nM): 79.4%"
"N#Cc1cccc(Cn2cc(-c3ccnc(Nc4ccc(N5CCNCC5)cc4)n3)c(-c3cccnc3)n2)c1 [Example 156, 3-((4-(2-((4-(Piperazin-1-yl)phenyl)amino)pyrimidin-4-yl)-3-(pyridin-3-yl)-1H-pyrazol-1-yl)methyl)benzonitrile]",0.0061 µM,0.0243 µM,
"CCn1cc(-c2ccnc(Nc3ccc(OC4CCNCC4F)cc3)n2)c(-c2cccnc2)n1 (stereo not drawn) [Example 164, 4-(1-Ethyl-3-(pyridin-3-yl)-1H-pyrazol-4-yl)-N-(4-((3-fluoropiperidin-4-yl)oxy)phenyl) pyrimidin-2-amine]",,0.0114 µM,
"CCn1cc(-c2ccnc(Nc3cccc(OC4CCNCC4)c3)n2)c(-c2cccnc2)n1 [Example 165, 4-(1-Ethyl-3-(pyridin-3-yl)-1H-pyrazol-4-yl)-N-(3-(piperidin-4-yloxy)phenyl) pyrimidin-2-amine]",0.057 µM,0.0226 µM,
"CCn1cc(-c2nc(Nc3ccc(N4CCNCC4)cc3)ncc2F)c(-c2cccnc2)n1 [Example 166, 4-(1-Ethyl-3-(pyridin-3-yl)-1H-pyrazol-4-yl)-5-fluoro-N-(4-(piperazin-1-yl)phenyl)pyrimidin-2-amine]",,0.04 µM,
"CCn1cc(-c2ccnc(Nc3ccc4c(c3)NCCC4)n2)c(-c2cccnc2)n1 [Example 170, N-(4-(1-Ethyl-3-(pyridin-3-yl)-1H-pyrazol-4-yl)pyrimidin-2-yl)-1,2,3,4-tetrahydroquinolin-7-amine]",,0.0227 µM,
"CCn1cc(-c2ccnc(Nc3ccc4c(c3)CCN(CC(=O)O)C4)n2)c(-c2cccnc2)n1 [Example 172, 2-(6-((4-(1-ethyl-3-(pyridin-3-yl)-1H-pyrazol-4-yl)pyrimidin-2-yl)amino)-3,4-dihydroisoquinolin-2(1H)-yl)acetic acid]",,0.0383 µM,

# Continued, in another order:
IC50 (human ALK2),"IC50 [1, 2]",SMILES,also measured
0.0066 µM,0.0128 µM,"CCn1cc(-c2ccnc(Nc3ccc(N4CCN(C(C)C)CC4)cc3)n2)c(-c2cccnc2)n1 [Example 16, 4-(1-ethyl-3-(pyridin-3-yl)-1H-pyrazol-4-yl)-N-(4-(4-isopropylpiperazin-1-yl)phenyl)pyrimidin-2-amine]",
,0.0338 µM,"CCn1cc(-c2ccnc(Nc3ccc(C(N)=O)cc3)n2)c(-c2cccnc2)n1 [Example 23, 4-((4-(1-Ethyl-3-(pyridin-3-yl)-1H-pyrazol-4-yl)pyrimidin-2-yl)amino)benzamide]","inhibition at 0.3 µM (human ALK3; ALK3, test compound 300 nM): 52%"
0.0061 µM,0.0078 µM,"CCn1cc(-c2ccnc(Nc3ccc(N4CCN(CC5CC5)CC4)cc3)n2)c(-c2cccnc2)n1 [Example 33, N-(4-(4-(Cyclopropylmethyl)piperazin-1-yl)phenyl)-4-(1-ethyl-3-(pyridin-3-yl)-1H-pyrazol-4-yl)pyrimidin-2-amine]",
0.0104 µM,0.0313 µM,"COCCN1CCN(c2ccc(Nc3nccc(-c4cn(CCOC)nc4-c4cccnc4)n3)cc2)CC1 [Example 37, 4-(1-(2-Methoxyethyl)-3-(pyridin-3-yl)-1H-pyrazol-4-yl)-N-(4-(4-(2-methoxyethyl)-piperazin-1-yl)phenyl)pyrimidin-2-amine]",
0.0255 µM,0.0188 µM,"CCn1cc(-c2ccnc(Nc3ccc(N4CCN(C)CC4)cc3)n2)c(-c2cccnc2)n1 [Example 46, 4-(1-Ethyl-3-(pyridin-3-yl)-1H-pyrazol-4-yl)-N-(4-(4-methylpiperazin-1-yl)phenyl)pyrimidin-2-amine]",
,0.0224 µM,"CN1CCN(c2ccc(Nc3nccc(-c4c[nH]nc4-c4cccnc4)n3)cc2)CC1 [Example 127, N-(4-(4-Methylpiperazin-1-yl)phenyl)-4-(3-(pyridin-3-yl)-1H-pyrazol-4-yl)pyrimidin-2-amine]","inhibition at 0.37 µM (human ALK6): 82.8%; inhibition at 0.37 µM (human ALK3; ALK3, test compound 370 nM (asterisk footnote), read-out: inhibition rate at 370 nM): 55.2%"
,0.0152 µM,"CCn1cc(-c2ccnc(Nc3ccc(CCN4CCNCC4)cc3)n2)c(-c2cccnc2)n1 [Example 159, 4-(1-Ethyl-3-(pyridin-3-yl)-1H-pyrazol-4-yl)-N-(4-(2-(piperazin-1-yl)ethyl)phenyl)-pyrimidin-2-amine]",
,0.0158 µM,"CCn1cc(-c2ccnc(Nc3ccc(N4CCC[C@H](N)C4)cc3)n2)c(-c2cccnc2)n1 [Example 160, (S)-N-(4-(3-Aminopiperidin-1-yl)phenyl)-4-(1-ethyl-3-(pyridin-3-yl)-1H-pyrazol-4-yl)pyrimidin-2-amine]",
,0.0126 µM,"CCn1cc(-c2ccnc(Nc3ccc(N4CCC[C@@H](N)C4)cc3)n2)c(-c2cccnc2)n1 [Example 161, (R)-N-(4-(3-Aminopiperidin-1-yl)phenyl)-4-(1-ethyl-3-(pyridin-3-yl)-1H-pyrazol-4-yl)pyrimidin-2-amine]",
,0.0476 µM,"CCn1cc(-c2ccnc(Nc3ccc(N4CCN(CC(=O)O)CC4)cc3)n2)c(-c2cccnc2)n1 [Example 173, 2-(4-(4-((4-(1-Ethyl-3-(pyridin-3-yl)-1H-pyrazol-4-yl)pyrimidin-2-yl)amino)phenyl)piperazin-1-yl)acetic acid]",
,0.037 µM,"CCn1cc(-c2ccnc(Nc3ccc(N4CCN(C(=O)CO)CC4)cc3)n2)c(-c2cccnc2)n1 [Example 174, 1-(4-(4-((4-(1-ethyl-3-(pyridin-3-yl)-1H-pyrazol-4-yl)pyrimidin-2-yl)amino)phenyl)piperazin-1-yl)-2-hydroxyethan-1-one]",
0.0035 µM,0.0085 µM,"CCn1cc(-c2ccnc(Nc3ccc(N4CCC(N)(CC)CC4)cc3)n2)c(-c2cccnc2)n1 [Example 177, N-(4-(4-Amino-4-ethylpiperidin-1-yl)phenyl)-4-(1-ethyl-3-(pyridin-3-yl)-1H-pyrazol-4-yl)pyrimidin-2-amine]",
,0.0148 µM,CCn1cc(-c2ccnc(Nc3ccc(N4CCC(C(C)(C)N)CC4)cc3)n2)c(-c2cccnc2)n1 [Example 178],
,0.0091 µM,"CCn1cc(-c2ccnc(Nc3ccc(-n4cnc(N5CCN(C)CC5)n4)cc3)n2)c(-c2cccnc2)n1 [Example 180, 4-(1-ethyl-3-(pyridin-3-yl)-1H-pyrazol-4-yl)-N-(4-(3-(4-methylpiperazin-1-yl)-1H-1,2,4-triazol-1-yl)phenyl)pyrimidin-2-amine]",
